Key:
[1] = tested on: VERPE; assay: Post-emergence herbicidal action against VERPE; assay type: in vivo, Veronica persica; conditions: application rate 80 g/ha
In short: (§1)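 Activity was scored by eye roughly 3 weeks post-treatment relative to untreated plants, on a scale where 0% equals control and 100% equals dead plants. Treatment: spray onto green parts at one-leaf stage (2–3 weeks from sowing, sandy loam, greenhouse), WP/EC formulations with 0.5% additive, 600 l/ha water.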

[2] = tested on: VIOTR; assay: Post-emergence herbicidal action against VIOTR; assay type: in vivo, Viola tricolor; conditions: application rate 80 g/ha, rated visually about 3 weeks after treatment
In short: as §1

[3] = tested on: MATIN; assay: Post-emergence herbicidal action against MATIN; assay type: in vivo, Matricaria inodora; conditions: application rate 80 g/ha, rated visually about 3 weeks after treatment
In short: as §1

[4] = tested on: HORMU; assay: Post-emergence herbicidal action against HORMU; assay type: in vivo, Hordeum murinum; conditions: application rate 80 g/ha
In short: as §1

[5] = tested on: POLCO; assay: Post-emergence herbicidal action against POLCO; assay type: in vivo, Polygonum convolvulus; conditions: application rate 80 g/ha, rated visually about 3 weeks after treatment
In short: as §1

[6] = tested on: AVEFA; assay: Post-emergence herbicidal action against AVEFA; assay type: in vivo, Avena fatua; conditions: application rate 80 g/ha, rated visually after about 3 weeks
In short: as §1

[7] = tested on: LOLRI; assay: Post-emergence herbicidal action against LOLRI; assay type: in vivo, Lolium rigidum; conditions: application rate 80 g/ha, rated visually after about 3 weeks
In short: as §1

[8] = tested on: ALOMY; assay: Post-emergence herbicidal action against ALOMY; assay type: in vivo, Alopecurus myosuroides; conditions: application rate 80 g/ha, rated visually after about 3 weeks
In short: as §1

[9] = tested on: PHBPU; assay: Post-emergence herbicidal action against PHBPU; assay type: in vivo, Pharbitis purpurea; conditions: application rate 80 g/ha, rated visually about 3 weeks after treatment
In short: as §1

[10] = tested on: SETVI; assay: Post-emergence herbicidal action against SETVI; assay type: in vivo, Setaria viridis; conditions: application rate 80 g/ha, rated visually after about 3 weeks
In short: as §1

[11] = tested on: STEME; assay: Post-emergence herbicidal action against STEME; assay type: in vivo, Stellaria media; conditions: application rate 80 g/ha, rated visually about 3 weeks after treatment
In short: as §1

[12] = tested on: ECHCG; assay: Post-emergence herbicidal action against ECHCG; assay type: in vivo, Echinochloa crus-galli; conditions: application rate 80 g/ha, rated visually after about 3 weeks
In short: as §1

[13] = tested on: ABUTH; assay: Post-emergence herbicidal action against ABUTH; assay type: in vivo, Abutilon theophrasti; conditions: application rate 80 g/ha, rated visually about 3 weeks after treatment
In short: as §1

[14] = tested on: AMARE; assay: Post-emergence herbicidal action against AMARE; assay type: in vivo, Amaranthus retroflexus; conditions: application rate 80 g/ha, rated visually about 3 weeks after treatment
In short: as §1

| SMILES | Herbicidal action against [%] VERPE [1] [%] | Herbicidal action against [%] VIOTR [2] [%] | Herbicidal action against [%] MATIN [3] [%] | Herbicidal action against [%] HORMU [4] [%] | Herbicidal action against [%] POLCO [5] [%] | Herbicidal action against [%] AVEFA [6] [%] | Herbicidal action against [%] LOLRI [7] [%] | Herbicidal action against [%] ALOMY [8] [%] | Herbicidal action against [%] PHBPU [9] [%] | Herbicidal action against [%] SETVI [10] [%] | Herbicidal action against [%] STEME [11] [%] | Herbicidal action against [%] ECHCG [12] [%] | Herbicidal action against [%] ABUTH [13] [%] | Herbicidal action against [%] AMARE [14] [%] |
| --- | --- | --- | --- | --- | --- | --- | --- | --- | --- | --- | --- | --- | --- | --- |
| COCCOC(=O)[C@@H]1C=C[C@H](NC(=O)[C@@]2(C(F)(F)F)CC(c3cc(F)cc(F)c3)=NO2)C1 [Example I-076] | 80 | 80 | 80 | 80 | 90 | 100 | 100 | 100 | 80 | 90 | 90 | 90 | 80 | 90 |
| CCOCCOC(=O)[C@@H]1C=C[C@H](NC(=O)[C@@]2(C)CC(c3cc(F)cc(F)c3)=NO2)C1 [Example I-093] | 80 | 80 | 90 | 100 | 90 | 100 | 100 | 100 | 80 | 80 | 80 | 100 | 80 | 80 |
| COC(=O)[C@@H]1C=C[C@H](NC(=O)C2(C(F)(F)F)CC(c3cc(F)cc(C#N)c3)=NO2)C1 (single isomer, unassigned) [Example I-098] | 80 | 80 | 80 | 90 | 80 | 100 | 90 | 100 | 80 | 80 | 90 | 90 | 80 | 80 |
| C[C@]1(C(=O)N[C@@H]2C=C(C(=O)O)CC2)CC(c2cc(F)cc(F)c2)=NO1 [Example V-01] | 80 | 90 | 80 | 90 | 90 |  | 100 | 100 | 90 | 80 | 90 | 90 | 80 | 80 |
| CCOC(=O)[C@@H]1C=C[C@H](NC(=O)C2(C(F)(F)F)CC(c3cc(C)cc(Cl)c3)=NO2)C1 (stereo partly shown) [Example I-023] | 90 | 80 | 90 | 80 | 100 | 90 | 90 | 90 | 80 | 90 |  | 80 | 80 | 90 |
| CCOC(=O)[C@@H]1C=C[C@H](NC(=O)C2(OC)CC(c3cc(F)cc(F)c3)=NO2)C1 (stereo partly shown) [Example I-020] | 90 | 100 | 90 | 80 |  | 100 | 90 | 90 | 80 | 90 | 80 | 80 | 80 | 100 |
| C=CC1(C(=O)N[C@H]2C=C[C@@H](C(=O)OCC(F)F)C2)CC(c2cc(F)cc(F)c2)=NO1 (stereo partly shown) [Example I-016] | 90 | 80 | 80 | 90 | 90 | 90 | 100 | 100 |  | 90 | 100 | 100 | 90 | 90 |
| CCOCCOC(=O)[C@@H]1C=C[C@H](NC(=O)[C@@]2(C(F)(F)F)CC(c3cc(F)cc(F)c3)=NO2)C1 [Example I-077] | 90 | 80 | 80 | 90 | 80 | 100 | 90 | 90 | 80 | 80 | 80 | 80 |  | 80 |
| C=CC1(C(=O)N[C@H]2C=C[C@@H](C(=O)OCCC(F)(F)F)C2)CC(c2cc(F)cc(F)c2)=NO1 (stereo partly shown) [Example I-017] | 90 | 80 | 80 | 100 | 90 | 100 | 100 | 100 |  | 90 | 100 | 100 | 100 | 90 |
| C=CC1(C(=O)N[C@H]2C=C[C@@H](C(=O)OCC(F)(F)F)C2)CC(c2cc(F)cc(F)c2)=NO1 (stereo partly shown) [Example I-015] | 90 | 90 | 80 | 100 | 100 | 100 | 100 | 100 |  | 90 | 100 | 100 | 90 | 100 |
